In patent US20170037028A1 (BAYER PHARMA AKTIENGESELLSCHAFT, priority 2013, published 2017):
Like-named read-outs stand apart in the source and are kept apart here.

Molecular target: T1, GLUT1 (Homo sapiens, UniProt P11166)
T1 sequence (P11166 1-492): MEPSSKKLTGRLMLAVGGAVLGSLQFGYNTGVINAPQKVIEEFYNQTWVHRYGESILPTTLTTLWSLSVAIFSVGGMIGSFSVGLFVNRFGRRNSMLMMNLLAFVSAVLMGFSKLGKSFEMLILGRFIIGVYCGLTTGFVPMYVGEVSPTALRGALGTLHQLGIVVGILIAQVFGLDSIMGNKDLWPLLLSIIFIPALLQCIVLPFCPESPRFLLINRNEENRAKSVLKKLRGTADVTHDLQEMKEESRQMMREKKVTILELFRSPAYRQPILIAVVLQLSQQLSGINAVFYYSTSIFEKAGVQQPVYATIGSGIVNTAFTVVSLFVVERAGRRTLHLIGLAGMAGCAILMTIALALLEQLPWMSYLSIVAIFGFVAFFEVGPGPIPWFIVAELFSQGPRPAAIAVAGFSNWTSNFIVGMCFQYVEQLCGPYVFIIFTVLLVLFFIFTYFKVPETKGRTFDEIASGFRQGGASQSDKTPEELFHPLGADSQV
Assay: Indirect measurement of GLUT1 activity by quantification of intracellular ATP levels (glucose induced ATP increase)
Type: cell-based
Parameters: endogenous in cells; host or cells: DLD1 or CHO-K1
Details: read-out: IC50 regarding glucose induced ATP increase (GLUT1 inhibition)
Description: Indirect Measurement of GLUT1 and GLUT2 Activity by Quantification of Intracellular ATP Levels
It is well known that a combination of small-molecule inhibitors of mitochondrial electron transport chain and glucose catabolism synergistically suppress ATP production and impair cellular viability (Ulanovskaya et al., 2008, 2011; Liu, et al. 2001). We therefore used DLD1 or CHO-K1 cells in combination with an oxidative phosphorylation inhibitor to identify GLUT1 and GLUT2 inhibitors. Cell lines were maintained in DMEM medium supplemented with 10% FCS and 1% Penicillin-Streptomycin solution and 2% Glutamax. The cells were treated with trypsin and seeded into 384 plates at a density of 4000 cells/well. The cells were then cultured overnight in glucose free media containing 1% FCS to reduce intracellular ATP levels. […] The CellTiter-Glo® Luminescent Cell Viability Assay from Promega was then used to measure ATP Levels.

Row | Compound | IC50 (DLD1 cells, 0.1 mM glucose, 1 μM Rotenone, 15 min, CellTiter-Glo ATP readout, IC50 values standardized to cytochalasin B IC50 values) | IC50
1 | 6-cyano N^4-[1-(4-cyanobenzyl)-5-methyl-3-(trifluoromethyl)-1H-pyrazol-4-yl]quinoline-2,4-dicarboxamide [Example 337] | 1.9 nM | 
2 | CCOC(=O)N=S(C)(=O)c1ccc(Cn2nc(C)c(NC(=O)c3cc(C(N)=O)nc4ccccc34)c2C)cc1 (racemic) [Example 376, (±)-ethyl [{4-[(4-{[(2-carbamoylquinolin-4-yl)carbonyl]amino}-3,5-dimethyl-1H-pyrazol-1-yl)methyl]phenyl}(methyl)oxido-λ^6-sulfanylidene]carbamate] |  | 642 nM
3 | Cc1nn(Cc2ccc(S(C)(=N)=O)cc2)c(C)c1NC(=O)c1cc(C(N)=O)nc2ccccc12 (racemic) [Example 377] |  | 1100 nM
4 | Cc1c(NC(=O)c2cc(S(C)=NC#N)nc3ccccc23)c(C(F)(F)F)nn1Cc1ccc(C#N)cc1 (racemic) [Example 385, (±)-N-[1-(4-cyanobenzyl)-5-methyl-3-(trifluoromethyl)-1H-pyrazol-4-yl]-2-(N-cyano-S-methylsulfinimidoyl)quinoline-4-carboxamide] |  | 81.7 nM
5 | Cc1c(NC(=O)c2cc(S(C)(=O)=NC#N)nc3ccccc23)c(C(F)(F)F)nn1Cc1ccc(C#N)cc1 (racemic) [Example 386, (±)-N-[1-(4-cyanobenzyl)-5-methyl-3-(trifluoromethyl)-1H-pyrazol-4-yl]-2-(N-cyano-S-methylsulfonimidoyl)quinoline-4-carboxamide] |  | 43.2 nM
6 | Cc1c(NC(=O)c2cc(S(C)(=N)=O)nc3ccccc23)c(C(F)(F)F)nn1Cc1ccc(C#N)cc1 (racemic) [Example 387, (±)-N-[1-(4-cyanobenzyl)-5-methyl-3-(trifluoromethyl)-1H-pyrazol-4-yl]-2-(S-methylsulfonimidoyl)quinoline-4-carboxamide] |  | 146 nM
7 | Cc1nn(Cc2ccc(C(=O)NCC3CCO3)cn2)c(C)c1NC(=O)c1cc(C(F)(F)F)nc2ccc(Br)cc12 (racemic) [Example 1124] |  | 72.6 nM
8 | Cc1nn(Cc2ccc(C(=O)N3CCC(O)C3)cc2)c(C)c1NC(=O)c1cc(C(F)(F)F)nc2ccc(Br)cc12 (racemic) [Example 1161] |  | 162 nM
9 | Cc1nn(Cc2ccc(C(=O)N3CCCC(O)C3)cc2)c(C)c1NC(=O)c1cc(C(F)(F)F)nc2ccc(Br)cc12 (racemic) [Example 1162] |  | 164 nM
10 | Cc1nn(Cc2ccc(C(=O)NC3CCNC3=O)cc2)c(C)c1NC(=O)c1cc(C(F)(F)F)nc2ccc(Br)cc12 (racemic) [Example 1166] |  | 170 nM
11 | Cc1nn(C(C)c2ccccc2)c(C)c1NC(=O)c1cc(C(F)(F)F)nc2ccc(Br)cc12 (racemic) [Example 1360] |  | 21.6 nM
12 | COc1cc(C(=O)Nc2c(C)nn(C(C)c3ccccc3)c2C)c2ccccc2n1 (racemic) [Example 1361] |  | 36.9 nM
13 | Cc1nn(C(C)c2ccc(F)cc2)c(C)c1NC(=O)c1cc(C(N)=O)nc2ccccc12 (racemic) [Example 1364] |  | 125 nM
14 | Cc1nn(C(C)c2ccc(F)cc2)c(C)c1NC(=O)c1cc(C(F)(F)F)nc2ccc(Br)cc12 (racemic) [Example 1374] |  | 42.6 nM
15 | Cc1nn(C(C)CCc2ccc(F)cc2)c(C)c1NC(=O)c1cc(C(F)(F)F)nc2ccc(Br)cc12 (racemic) [Example 1378] |  | 643 nM
16 | Cc1nn(C(C)CCc2ccc(F)cc2)c(C)c1NC(=O)c1cc(C(N)=O)nc2ccccc12 (racemic) [Example 1379] |  | 39.4 nM
17 | Cc1c(NC(=O)c2cc(C(F)(F)F)nc3ccc(Br)cc23)c(C(F)(F)F)nn1C(C)c1ccccc1 (racemic) [Example 1398] |  | 38.9 nM
18 | Cc1nn(Cc2ccc(S(C)(=N)=O)cc2)c(C)c1NC(=O)c1cc(C(F)(F)F)nc2ccc(Br)cc12 (racemic) [Example 1427] |  | 26.9 nM
19 | CCOC(=O)N=S(C)(=O)c1ccc(Cn2nc(C)c(NC(=O)c3cc(C(F)(F)F)nc4ccc(Br)cc34)c2C)cc1 (racemic) [Example 1433] |  | 717 nM
20 | Cc1c(NC(=O)c2cc(C(N)=O)nc3ccccc23)c(C(F)(F)F)nn1Cc1ccc(C(C)O)cc1 (racemic) [Example 1615] |  | 59.4 nM
21 | Cc1nn(Cc2ccc(C(C)O)cc2)c(C)c1NC(=O)c1cc(C(N)=O)nc2ccccc12 (racemic) [Example 1635] |  | 45.4 nM
22 | Cc1c(NC(=O)c2cc(C(N)=O)nc3ccccc23)c(C(F)(F)F)nn1Cc1cccc(C(C)O)c1 (racemic) [Example 1644] |  | 184 nM
23 | Cc1nn(Cc2cccc(C(C)O)c2)c(C)c1NC(=O)c1cc(C(N)=O)nc2ccccc12 (racemic) [Example 1645] |  | 319 nM
24 | Cc1c(NC(=O)c2cc(C(N)=O)nc3cc(F)ccc23)c(C(F)(F)F)nn1C(C)c1ccccc1 (single isomer, unassigned) [Example 336, (S or R)-7-fluoro-N^4-[5-methyl-1-(1-phenylethyl)-3-(trifluoromethyl)-1H-pyrazol-4-yl]quinoline-2,4-dicarboxamide] |  | 150 nM
25 | Cc1c(NC(=O)c2cc(C(N)=O)nc3cc(F)ccc23)c(C(F)(F)F)nn1C(C)c1ccccc1 (single isomer, unassigned) [Example 379, (R or S)-7-fluoro-N^4-[5-methyl-1-(1-phenylethyl)-3-(trifluoromethyl)-1H-pyrazol-4-yl]quinoline-2,4-dicarboxamide] |  | 862 nM

Further compounds by falling IC50, results first:

Row | IC50 (DLD1 cells, 0.1 mM glucose, 1 μM Rotenone, 15 min, CellTiter-Glo ATP readout, IC50 values standardized to cytochalasin B IC50 values) | IC50 | Compound
26 |  | 15.1 nM | Cc1nn(Cc2ccc(C(=O)N[C@H](C)[C@@H](C)O)cc2)c(C)c1NC(=O)c1cc(C(F)(F)F)nc2ccc(Br)cc12 (relative stereo) [Example 1057]
27 |  | 8.3 nM | Cc1c(NC(=O)c2cc([S+](C)[O-])nc3ccccc23)c(C(F)(F)F)nn1Cc1ccc(C#N)cc1 (racemic) [Example 383, (±)-N-[1-(4-cyanobenzyl)-5-methyl-3-(trifluoromethyl)-1H-pyrazol-4-yl]-2-(methylsulfinyl)quinoline-4-carboxamide]
28 |  | 7.5 nM | Cc1c(NC(=O)c2cc(C(N)=O)nc3cc(F)ccc23)c(C(F)(F)F)nn1C(C)c1ccccc1 (racemic) [Example 334, (±)-7-fluoro-N^4-[5-methyl-1-(1-phenylethyl)-3-(trifluoromethyl)-1H-pyrazol-4-yl]quinoline-2,4-dicarboxamide]
29 |  | 5.8 nM | Cc1nn(C(C)c2ccccc2)c(C)c1NC(=O)c1cc(C(N)=O)nc2ccccc12 (racemic) [Example 1362]
30 |  | 4.3 nM | Cc1c(NC(=O)c2cc(C(N)=O)nc3ccccc23)c(C(F)(F)F)nn1C(C)c1ccccc1 (racemic) [Example 1397]
31 |  | 3.7 nM | Cc1nn(C(C)CCc2ccc(F)cc2)c(C)c1NC(=O)c1cc(C(N)=O)nc2cc(F)c(Cl)cc12 (racemic) [Example 1380]
32 |  | 2.5 nM | Cc1nn(C(C)c2ccc(C#N)cc2)c(C)c1NC(=O)c1cc(C(N)=O)nc2c(F)cccc12 (racemic) [Example 331, (±)-N^4-{1-[1-(4-cyanophenyl)ethyl]-3,5-dimethyl-1H-pyrazol-4-yl}-8-fluoroquinoline-2,4-dicarboxamide]
33 |  | 1.8 nM | Cc1nn(C(C)c2ccccc2)c(C)c1NC(=O)c1cc(C(N)=O)nc2cc(F)c(Cl)cc12 (racemic) [Example 1363]
34 |  | 1.6 nM | Cc1c(NC(=O)c2cc(C(N)=O)nc3cc(F)ccc23)c(C(F)(F)F)nn1C(C)c1ccccc1 (single isomer, unassigned) [Example 335, (R or S)-7-fluoro-N^4-[5-methyl-1-(1-phenylethyl)-3-(trifluoromethyl)-1H-pyrazol-4-yl]quinoline-2,4-dicarboxamide]
35 |  | 1.6 nM | COc1ccc(Cn2nc(C)c(NC(=O)c3cc(OC)nc4ccccc34)c2C)cc1 [Example 1, 2-methoxy-N-[1-(4-methoxybenzyl)-3,5-dimethyl-1H-pyrazol-4-yl]quinoline-4-carboxamide]
36 |  | 1.3 nM | Cc1nn(C(C)c2ccc(C#N)cc2)c(C)c1NC(=O)c1cc(C(N)=O)nc2cc(F)c(Cl)cc12 (racemic) [Example 330, (±)-6-chloro-N^4-{1-[1-(4-cyanophenyl)ethyl]-3,5-dimethyl-1H-pyrazol-4-yl}-7-fluoroquinoline-2,4-dicarboxamide]
37 |  | 1.1 nM | Cc1nn(C(C)c2ccc(C#N)cc2)c(C)c1NC(=O)c1cc(C(N)=O)nc2ccccc12 (racemic) [Example 329, (±)-N^4-{1-[1-(4-cyanophenyl)ethyl]-3,5-dimethyl-1H-pyrazol-4-yl}quinoline-2,4-dicarboxamide]
38 |  | 0.6 nM | Cc1c(NC(=O)c2cc(C(N)=O)nc3ccccc23)c(C(F)(F)F)nn1C(C)c1ccc(C#N)cc1 (racemic) [Example 333, (±)-N^4-{1-[1-(4-cyanophenyl)ethyl]-5-methyl-3-(trifluoromethyl)-1H-pyrazol-4-yl}quinoline-2,4-dicarboxamide]
